Data from US12344623B2, “Thiazolopyridine derivatives as adenosine receptor antagonists” (Merck Patent GmbH, priority 2019, dated 2025).
Where two headings read alike, the source gives them in different places.

Legend:
Assay type in all cases: cell-based
human A3 receptor = target: T1, human A3 receptor (Homo sapiens, UniProt P0DMS8); assay: Functional A3 receptor activity, recombinant CHO cells, cAMP (HTRF), forskolin, agonist IB-MECA; conditions: recombinant CHO cells, forskolin, agonist IB-MECA, read-out: Functional A3 receptor activity, CHO, cAMP, IC50
T1 construct: expressed in transfected cells; host or cells: CHO
T1 sequence (P0DMS8 1-318): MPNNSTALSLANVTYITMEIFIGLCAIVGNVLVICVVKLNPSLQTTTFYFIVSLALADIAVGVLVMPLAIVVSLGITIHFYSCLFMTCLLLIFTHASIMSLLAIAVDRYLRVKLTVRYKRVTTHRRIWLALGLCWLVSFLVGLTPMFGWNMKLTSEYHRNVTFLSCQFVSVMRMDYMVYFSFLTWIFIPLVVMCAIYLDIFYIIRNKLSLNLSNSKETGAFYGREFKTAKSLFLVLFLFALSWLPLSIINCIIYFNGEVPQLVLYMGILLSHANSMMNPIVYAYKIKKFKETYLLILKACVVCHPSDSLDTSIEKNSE
Protocol: (§1) The functional activities of human A2A, A2B, A1 and A3 receptors were determined by quantification of cAMP, being the second messenger for adenosine receptors.
(§2) For human A1 and A3 receptors, recombinant CHO cells, expressing either A1 or A3-receptor, were used. As both receptors couple to Gi proteins, the assay protocol was adapted:
(§3) Cells were seeded into 384-well plates, forskolin, test compounds and agonists (CPA for A1- and IB-MECA for A3-receptor) were added. After 30 min incubation, HTRF reagents (cAMP dynamic 2, Cis Bio) were added and the cellular cAMP levels were determined using the ENVISION (Perkin Elmer) plate reader. Obtained raw data were normalized against the inhibitor control and the neural control (DMSO) and the normalized data were fitted using GeneData software.

human A1 receptor = target: T2, human A1 receptor (Homo sapiens, UniProt P30542); assay: Functional A1 receptor activity, recombinant CHO cells, cAMP (HTRF), forskolin, agonist CPA; conditions: recombinant CHO cells, forskolin, agonist CPA, read-out: Functional A1 receptor activity, CHO, cAMP, IC50
T2 construct: expressed in transfected cells; host or cells: CHO
T2 sequence (P30542 1-326): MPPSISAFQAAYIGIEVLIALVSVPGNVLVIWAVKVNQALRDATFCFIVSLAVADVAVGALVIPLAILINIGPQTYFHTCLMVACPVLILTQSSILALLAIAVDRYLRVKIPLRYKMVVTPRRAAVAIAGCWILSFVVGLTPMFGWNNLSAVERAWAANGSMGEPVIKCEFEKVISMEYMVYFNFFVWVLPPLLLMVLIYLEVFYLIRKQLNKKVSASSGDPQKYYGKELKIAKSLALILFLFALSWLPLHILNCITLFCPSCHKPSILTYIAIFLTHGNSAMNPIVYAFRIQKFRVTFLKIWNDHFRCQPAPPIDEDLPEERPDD
Protocol: as §1, §2, §3

human A2A receptor = human A2A receptor (Homo sapiens, UniProt P29274); assay: Functional A2A receptor activity, recombinant HEK293 cells, cAMP (HTRF), agonist NECA; set-up: expressed in transfected cells; host or cells: HEK293; conditions: read-out: Functional A2A receptor activity, HEK293, cAMP, IC50
human A2A receptor, sequence (P29274 whole entry): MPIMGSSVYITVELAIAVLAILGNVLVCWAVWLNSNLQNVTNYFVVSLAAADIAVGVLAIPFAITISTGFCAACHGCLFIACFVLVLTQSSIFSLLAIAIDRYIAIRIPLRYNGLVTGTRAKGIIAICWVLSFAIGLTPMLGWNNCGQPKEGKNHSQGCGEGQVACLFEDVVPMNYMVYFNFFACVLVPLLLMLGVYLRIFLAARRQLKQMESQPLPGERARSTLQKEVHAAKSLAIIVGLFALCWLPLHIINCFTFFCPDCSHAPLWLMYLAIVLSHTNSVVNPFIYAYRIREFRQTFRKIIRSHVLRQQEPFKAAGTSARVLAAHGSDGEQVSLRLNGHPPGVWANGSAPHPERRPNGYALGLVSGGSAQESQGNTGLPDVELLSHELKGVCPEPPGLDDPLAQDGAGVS
Protocol: as §1, §3

human A2B receptor = target: T3, human A2B receptor (Homo sapiens, UniProt P29275); assay: Functional A2B receptor activity, recombinant HEK293 cells, cAMP (HTRF), agonist NECA; conditions: read-out: Functional A2B receptor activity, HEK293, cAMP, IC50
T3 construct: expressed in transfected cells; host or cells: HEK293
T3 sequence (P29275 1-332): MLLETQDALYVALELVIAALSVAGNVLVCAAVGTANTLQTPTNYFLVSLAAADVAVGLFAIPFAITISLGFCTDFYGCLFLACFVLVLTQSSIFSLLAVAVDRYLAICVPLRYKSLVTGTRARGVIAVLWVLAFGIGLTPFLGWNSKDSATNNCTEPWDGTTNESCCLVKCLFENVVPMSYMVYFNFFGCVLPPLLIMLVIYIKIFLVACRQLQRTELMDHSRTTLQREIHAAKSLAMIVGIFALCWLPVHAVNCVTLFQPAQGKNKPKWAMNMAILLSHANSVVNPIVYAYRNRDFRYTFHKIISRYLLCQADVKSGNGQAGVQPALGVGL
Protocol: as §1, §3

Row | IC50 (human A3 receptor; cAMP) | IC50 (human A1 receptor; cAMP) | IC50 (human A2A receptor) | IC50 (human A2B receptor) | IC50 (human A3 receptor) | IC50 (human A1 receptor) | Compound
1 | > 1000 nM | > 1000 nM | < 10 nM | < 1000 nM | – | – | COc1cnc(N2CCOCC2)c2sc(NC(=O)N3CCC4(CCCO4)CC3)nc12 [drawing 189, reference compound]
2 | – | – | < 10 nM | < 10 nM | > 1000 nM | < 1000 nM | COc1ncc(C2=CCOCC2)c2sc(NC(=O)c3ccc([C@@H](C)NC(C)=O)cc3)nc12 [Compound 83, N-[7-(3,6-dihydro-2H-pyran-4-yl)-4-methoxy-[1,3]thiazolo[4,5-c]pyridin-2-yl]-4-[(1R)-1-acetamidoethyl]benzamide]
3 | < 1000 nM | > 1000 nM | < 100 nM | < 1000 nM | – | – | COc1cnc(C2CCOCC2)c2sc(NC(=O)N3CCC(O)CC3)nc12 [drawing 190, reference compound]
4 | – | – | < 10 nM | < 100 nM | > 1000 nM | > 1000 nM | COc1nc(F)c(N2CCOCC2)c2sc(NC(=O)N3CCC4(CCOC4)C3)nc12 (stereo not drawn) [Compound 16, N-[6-fluoro-4-methoxy-7-(morpholin-4-yl)-[1,3]thiazolo[4,5-c]pyridin-2-yl]-2-oxa-7-azaspiro[4.4]nonane-7-carboxamide]
5 | – | – | < 100 nM | < 100 nM | > 1000 nM | > 1000 nM | COc1ncc(C2=CC(=O)CC2)c2sc(NC(=O)N3CCC4(CCOCC4)C3)nc12 [Compound 40, 8-Oxa-2-aza-spiro[4.5]decane-2-carboxylic acid [4-methoxy-7-(3-oxo-cyclopent-1-enyl)-thiazolo[4,5-c]pyridin-2-yl]-amide]
6 | – | – | < 10 nM | < 10 nM | > 1000 nM | < 100 nM | COc1nc(F)c(-c2ccccc2)c2sc(NC(=O)c3c[nH]cn3)nc12 [Compound 32, 1H-Imidazole-4-carboxylic acid (6-fluoro-4-methoxy-7-phenyl-thiazolo[4,5-c]pyridin-2-yl)-amide]
7 | – | – | < 10 nM | < 1000 nM | > 1000 nM | > 1000 nM | COc1ncc(C2=CCC(OC)CC2)c2sc(NC(=O)N3CC[C@]4(CCCOC4)C3)nc12 (stereo partly drawn) [Compound 70, (5R)-N-[4-methoxy-7-(4-methoxycyclohex-1-en-1-yl)-[1,3]thiazolo[4,5-c]pyridin-2-yl]-7-oxa-2-azaspiro[4.5]decane-2-carboxamide]
8 | – | – | < 10 nM | < 100 nM | > 1000 nM | > 1000 nM | COc1ncc(-c2ccccc2)c2sc(NC(=O)c3ccc(-c4nnn[nH]4)cc3)nc12 [Compound 110, N-{4-methoxy-7-phenyl-[1,3]thiazolo[4,5-c]pyridin-2-yl}-4-(1H-1,2,3,4-tetrazol-5-yl)benzamide]
9 | – | – | < 10 nM | < 100 nM | > 1000 nM | < 1000 nM | COc1ncc(-c2ccc(C)o2)c2sc(NC(=O)N3CCC4(CCOCC4)C3)nc12 [Compound 114, 8-Oxa-2-aza-spiro[4.5]decane-2-carboxylic acid [4-methoxy-7-(5-methyl-furan-2-yl)-thiazolo[4,5-c]pyridin-2-yl]-amide]
10 | – | – | < 10 nM | < 10 nM | < 1000 nM | < 1000 nM | COc1ncc(-c2ccccc2)c2sc(NC(=O)c3c[nH]cn3)nc12 [Compound 60, 1H-Imidazole-4-carboxylic acid (4-methoxy-7-phenyl-thiazolo[4,5-c]pyridin-2-yl)-amide]
11 | – | – | < 10 nM | < 100 nM | > 1000 nM | > 1000 nM | COc1ncc(C2=CCOCC2)c2sc(NC(=O)N3CC[C@]4(CCCNC4)C3)nc12 [Compound 122, (S)-2,7-Diaza-spiro[4.5]decane-2-carboxylic acid [7-(3,6-dihydro-2H-pyran-4-yl)-4-methoxy-thiazolo[4,5-c]pyridin-2-yl]-amide]
12 | – | – | < 10 nM | < 100 nM | > 1000 nM | > 1000 nM | COc1nc(F)c(-c2ccccc2)c2sc(NC(=O)C34CC(C(=O)N(C)CCO)(C3)C4)nc12 [Compound 101, Bicyclo[1.1.1]pentane-1,3-dicarboxylic acid (6-fluoro-4-methoxy-7-phenyl-thiazolo[4,5-c]pyridin-2-yl)-amide (2-hydroxy-ethyl)-methyl-amide]
13 | – | – | < 10 nM | < 10 nM | > 1000 nM | < 1000 nM | COc1ncc(-c2ccc(F)c(O)c2)c2sc(NC(=O)N3CCC4(CCOCC4)C3)nc12 [Compound 149, 8-Oxa-2-aza-spiro[4.5]decane-2-carboxylic acid [7-(4-fluoro-3-hydroxy-phenyl)-4-methoxy-thiazolo[4,5-c]pyridin-2-yl]-amide]
14 | – | – | < 10 nM | < 10 nM | > 1000 nM | > 1000 nM | COc1ncc(C2=CCOCC2)c2sc(NC(=O)Nc3ccc(NC(=O)CN(C)C)cc3)nc12 [Compound 90, N-[4-({[7-(3,6-dihydro-2H-pyran-4-yl)-4-methoxy-[1,3]thiazolo[4,5-c]pyridin-2-yl]carbamoyl}amino)phenyl]-2-(dimethylamino)acetamide]
15 | – | – | < 10 nM | < 10 nM | > 1000 nM | < 1000 nM | COc1ncc(C2=CCSCC2)c2sc(NC(=O)N3CCC4(CCOCC4)C3)nc12 [Compound 64, 8-Oxa-2-aza-spiro[4.5]decane-2-carboxylic acid [7-(3,6-dihydro-2H-thiopyran-4-yl)-4-methoxy-thiazolo[4,5-c]pyridin-2-yl]-amide]
16 | – | – | < 10 nM | < 10 nM | > 1000 nM | < 1000 nM | COc1nc(F)c(-c2ccc(F)cc2)c2sc(NC(=O)N3CCC(C)(O)CC3)nc12 [Compound 27, 4-Hydroxy-4-methyl-piperidine-1-carboxylic acid [6-fluoro-7-(4-fluoro-phenyl)-4-methoxy-thiazolo[4,5-c]pyridin-2-yl]-amide]
17 | – | – | < 10 nM | < 10 nM | < 1000 nM | < 1000 nM | COCCn1cc(C(=O)Nc2nc3c(OC)nc(F)c(C4CCOCC4)c3s2)cn1 [Compound 22, N-[6-fluoro-4-methoxy-7-(oxan-4-yl)-[1,3]thiazolo[4,5-c]pyridin-2-yl]-1-(2-methoxyethyl)-1H-pyrazole-4-carboxamide]
18 | > 1000 nM | > 1000 nM | < 10 nM | < 1000 nM | – | – | COc1ccc(N2CCOCC2)c2sc(NC(=O)N3CCOCC3)nc12 [reference compound]
19 | – | – | < 10 nM | < 100 nM | > 1000 nM | < 1000 nM | COc1ncc(C2=CCOC2)c2sc(NC(=O)c3c[nH]cn3)nc12 [Compound 43, N-[7-(2,5-dihydrofuran-3-yl)-4-methoxy-[1,3]thiazolo[4,5-c]pyridin-2-yl]-1H-imidazole-4-carboxamide]
20 | – | – | < 10 nM | < 100 nM | > 1000 nM | > 1000 nM | O=C(Nc1nc2c(OC(F)F)ncc(-c3ccccc3)c2s1)N1CCC2(CCOCC2)C1 [Compound 80, 8-Oxa-2-aza-spiro[4.5]decane-2-carboxylic acid (4-difluoromethoxy-7-phenyl-thiazolo[4,5-c]pyridin-2-yl)-amide]
21 | – | – | < 10 nM | < 100 nM | > 1000 nM | > 1000 nM | COc1nc(F)c(C2CCOCC2)c2sc(NC(=O)N3CC[C@]4(CCCOC4)C3)nc12 [Compound 34, (R)-7-Oxa-2-aza-spiro[4.5]decane-2-carboxylic acid [6-fluoro-4-methoxy-7-(tetrahydro-pyran-4-yl)-thiazolo[4,5-c]pyridin-2-yl]-amide]
